Tests used:
[1] = target: T1, Kelch-like ECH-associated protein 1/Bromodomain-containing protein 4 (Homo sapiens, UniProt O60885+Q14145); experiment: PROTAC activity at Keap1/BRD4 in human MDA-MB-231 cells assessed as degradation of BRD4 measured after 10 hrs; type: cell-based
[2] = target: T1, Kelch-like ECH-associated protein 1/Bromodomain-containing protein 4; experiment: PROTAC activity at Keap1/BRD4 in human MDA-MB-231 cells assessed as degradation of BRD4 measured after 5 hrs; type: cell-based
[3] = target: Cyclin-dependent kinase 9 (Homo sapiens, UniProt P50750); experiment: Inhibition of CDK9 (unknown origin) incubated for 1 hr by fluorescent polarisation based assay
Cyclin-dependent kinase 9, sequence (P50750 whole entry): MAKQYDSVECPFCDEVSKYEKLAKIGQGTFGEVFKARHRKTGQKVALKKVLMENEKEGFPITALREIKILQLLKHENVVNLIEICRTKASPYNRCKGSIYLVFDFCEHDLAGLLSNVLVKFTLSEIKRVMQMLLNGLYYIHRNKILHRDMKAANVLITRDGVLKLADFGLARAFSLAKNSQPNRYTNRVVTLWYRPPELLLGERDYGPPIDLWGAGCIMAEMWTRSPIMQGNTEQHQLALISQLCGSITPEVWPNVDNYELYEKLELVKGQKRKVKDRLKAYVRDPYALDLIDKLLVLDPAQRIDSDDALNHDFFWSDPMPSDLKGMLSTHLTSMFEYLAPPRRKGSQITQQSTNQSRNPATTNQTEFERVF

MCF7 = experiment: cells; conditions: Homo sapiens, MCF7, 72 h
Description: Antiproliferative activity against human MCF7 cells incubated for 72 hrs by MTT assay

[4] = target: T2, 3-hydroxy-3-methylglutaryl-coenzyme A reductase (Homo sapiens, UniProt P04035); experiment: Degradation of HMGCR (unknown origin)
T2 sequence (P04035 whole entry): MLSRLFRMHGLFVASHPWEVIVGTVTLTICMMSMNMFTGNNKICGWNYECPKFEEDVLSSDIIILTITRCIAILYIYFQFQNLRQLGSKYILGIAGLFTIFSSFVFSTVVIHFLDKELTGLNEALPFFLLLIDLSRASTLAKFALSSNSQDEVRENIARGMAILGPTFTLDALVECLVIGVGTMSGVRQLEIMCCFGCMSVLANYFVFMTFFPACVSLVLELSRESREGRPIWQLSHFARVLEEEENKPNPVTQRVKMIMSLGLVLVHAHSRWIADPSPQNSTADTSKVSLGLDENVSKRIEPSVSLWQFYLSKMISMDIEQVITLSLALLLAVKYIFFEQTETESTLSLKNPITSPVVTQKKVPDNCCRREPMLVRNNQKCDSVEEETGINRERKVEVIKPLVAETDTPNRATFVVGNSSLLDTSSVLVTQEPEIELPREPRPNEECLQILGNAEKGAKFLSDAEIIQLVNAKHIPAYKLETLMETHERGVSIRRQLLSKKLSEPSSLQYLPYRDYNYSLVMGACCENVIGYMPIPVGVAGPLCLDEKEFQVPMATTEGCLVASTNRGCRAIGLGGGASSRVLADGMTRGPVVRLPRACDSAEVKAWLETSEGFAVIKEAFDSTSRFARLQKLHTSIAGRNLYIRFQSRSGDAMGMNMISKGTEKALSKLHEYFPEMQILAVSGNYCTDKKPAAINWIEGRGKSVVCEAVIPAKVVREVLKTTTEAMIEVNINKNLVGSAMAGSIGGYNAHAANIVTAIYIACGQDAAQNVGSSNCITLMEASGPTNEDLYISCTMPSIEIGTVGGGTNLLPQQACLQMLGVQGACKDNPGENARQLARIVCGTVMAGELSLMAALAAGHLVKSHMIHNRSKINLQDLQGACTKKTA

LNCaP = experiment: Cytotoxicity against human LNCap cells; type: functional, cell-based
DU-145 = experiment: Cytotoxicity against human DU-145 cells; type: functional, cell-based
CWR22R = experiment: Cytotoxicity against human 22Rv1 cells; type: functional, cell-based
[5] = target: Kelch-like ECH-associated protein 1/Cyclin-dependent kinase 9 (Homo sapiens, UniProt P50750+Q14145); experiment: PROTAC activity at Keap1/CDK9 in human MOLT4 cells measured after 16 hrs; type: cell-based; conditions: molt-4
Kelch-like ECH-associated protein 1/Cyclin-dependent kinase 9, sequence (P50750 whole entry): as the sequence (P50750 whole entry) above
Kelch-like ECH-associated protein 1/Cyclin-dependent kinase 9, sequence (Q14145 whole entry): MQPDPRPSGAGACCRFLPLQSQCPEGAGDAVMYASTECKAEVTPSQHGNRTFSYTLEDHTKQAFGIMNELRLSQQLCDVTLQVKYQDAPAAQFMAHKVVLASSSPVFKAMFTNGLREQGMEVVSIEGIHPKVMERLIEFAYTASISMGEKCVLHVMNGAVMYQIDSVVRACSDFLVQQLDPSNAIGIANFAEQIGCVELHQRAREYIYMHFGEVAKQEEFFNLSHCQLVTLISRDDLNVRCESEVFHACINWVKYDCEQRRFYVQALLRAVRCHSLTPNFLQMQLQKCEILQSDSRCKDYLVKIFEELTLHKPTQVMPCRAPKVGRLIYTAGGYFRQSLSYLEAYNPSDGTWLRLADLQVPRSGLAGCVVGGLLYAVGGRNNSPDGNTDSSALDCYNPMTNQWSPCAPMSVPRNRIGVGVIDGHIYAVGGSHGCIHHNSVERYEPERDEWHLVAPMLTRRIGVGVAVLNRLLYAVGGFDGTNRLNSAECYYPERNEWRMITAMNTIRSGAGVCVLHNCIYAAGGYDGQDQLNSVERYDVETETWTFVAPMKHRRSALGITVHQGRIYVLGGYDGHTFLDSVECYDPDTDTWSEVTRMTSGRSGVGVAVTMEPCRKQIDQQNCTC

HT-29 = experiment: Cytotoxicity against human HT-29 cells incubated for 72 hrs by CCK-8 assay; type: functional, cell-based; conditions: HT-29, 72 h
HFF-1 = experiment: Cytotoxicity against human HFF-1 cells incubated for 72 hrs by CCK-8 assay; type: functional, cell-based; conditions: HFF-1, 72 h
HeLa = experiment: Cytotoxicity against human HeLa cells incubated for 72 hrs by CCK-8 assay; type: functional, cell-based
A549 [6] = experiment: Cytotoxicity against human A549 cells incubated for 24 hrs by MTT assay; type: functional, cell-based; conditions: A549, 24 h
Huh-7 [7] = experiment: Cytotoxicity against human Huh-7 cells incubated for 24 hrs by MTT assay; type: functional, cell-based; conditions: Huh-7, 24 h
Huh-7 [8] = experiment: Cytotoxicity against human Huh-7 cells measured after 24 hrs by MTT assay; type: functional, cell-based; conditions: Huh-7, 24 h
HepG2 [9] = experiment: Cytotoxicity against human HepG2 cells incubated for 24 hrs by MTT assay; type: functional, cell-based; conditions: HepG2, 24 h
A549 [10] = experiment: Cytotoxicity against human A549 cells measured after 24 hrs by MTT assay; type: functional, cell-based; conditions: A549, 24 h
[11] = target: Protein cereblon/E3 ubiquitin-protein ligase Mdm2 (Homo sapiens) (UniProt Q00987+Q96SW2); experiment: PROTAC activity at CRBN/MDM2 (unknown origin) assessed as degradation of MDM2 relative to control; type: protein assay
Protein cereblon/E3 ubiquitin-protein ligase Mdm2 (Homo sapiens), sequence (Q00987 whole entry, looked up): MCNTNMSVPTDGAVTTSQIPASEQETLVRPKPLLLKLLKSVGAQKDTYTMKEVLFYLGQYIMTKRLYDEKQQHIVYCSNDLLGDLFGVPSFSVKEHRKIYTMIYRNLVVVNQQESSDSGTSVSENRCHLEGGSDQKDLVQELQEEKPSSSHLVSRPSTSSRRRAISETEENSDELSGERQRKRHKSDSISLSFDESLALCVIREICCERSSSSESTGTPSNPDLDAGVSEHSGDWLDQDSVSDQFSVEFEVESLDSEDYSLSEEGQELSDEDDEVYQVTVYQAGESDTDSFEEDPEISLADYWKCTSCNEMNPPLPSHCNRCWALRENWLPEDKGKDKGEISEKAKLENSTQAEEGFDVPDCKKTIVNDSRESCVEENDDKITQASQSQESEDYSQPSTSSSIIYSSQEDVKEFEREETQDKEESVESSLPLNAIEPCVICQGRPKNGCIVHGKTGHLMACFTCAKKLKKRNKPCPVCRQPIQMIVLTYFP
Protein cereblon/E3 ubiquitin-protein ligase Mdm2 (Homo sapiens), sequence (Q96SW2 whole entry, looked up): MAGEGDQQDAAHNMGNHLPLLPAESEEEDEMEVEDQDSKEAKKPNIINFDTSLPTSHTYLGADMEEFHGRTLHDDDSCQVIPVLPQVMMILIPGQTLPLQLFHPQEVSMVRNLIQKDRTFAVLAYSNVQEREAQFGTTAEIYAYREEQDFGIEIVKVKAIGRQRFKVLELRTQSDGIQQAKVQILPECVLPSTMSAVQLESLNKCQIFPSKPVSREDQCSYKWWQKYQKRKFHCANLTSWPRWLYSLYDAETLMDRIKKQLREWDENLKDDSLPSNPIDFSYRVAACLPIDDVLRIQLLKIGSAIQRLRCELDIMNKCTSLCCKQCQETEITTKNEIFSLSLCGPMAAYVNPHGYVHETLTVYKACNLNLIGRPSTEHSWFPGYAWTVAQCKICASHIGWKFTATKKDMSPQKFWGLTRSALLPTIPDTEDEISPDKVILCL

HepG2 [12] = experiment: Cytotoxicity against human HepG2 cells measured after 24 hrs by MTT assay; type: functional, cell-based; conditions: HepG2, 24 h
[13] = target: von Hippel-Lindau disease tumor suppressor/3-hydroxy-3-methylglutaryl-coenzyme A reductase (Homo sapiens, UniProt P04035+P40337); experiment: PROTAC activity at VHL/HMGCR in human HepG2 cells assessed as degradation of HMGCR measured at 1 uM after 16 hrs relative to control; type: cell-based
von Hippel-Lindau disease tumor suppressor/3-hydroxy-3-methylglutaryl-coenzyme A reductase, sequence (P40337 whole entry, looked up, one chain of several): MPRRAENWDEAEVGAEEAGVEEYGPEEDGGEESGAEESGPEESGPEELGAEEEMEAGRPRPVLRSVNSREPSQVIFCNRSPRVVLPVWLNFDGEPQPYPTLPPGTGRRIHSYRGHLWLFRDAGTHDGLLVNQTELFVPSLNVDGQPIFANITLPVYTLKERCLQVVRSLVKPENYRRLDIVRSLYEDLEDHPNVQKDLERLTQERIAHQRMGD

[14] = target: T2, 3-hydroxy-3-methylglutaryl-coenzyme A reductase; experiment: Inhibition of HMGCR (unknown origin)

T1 sequence (Q14145 whole entry, looked up, other chains not shown): as the sequence (Q14145 whole entry) above

SMILES: CC1=C(O)C(=O)C=C2C1=CC=C1[C@@]2(C)CC[C@@]2(C)[C@@H]3C[C@](C)(C(=O)NCCCOCCOCCOCCCNC(=O)C[C@@H]4N=C(c5ccc(Cl)cc5)c5c(sc(C)c5C)-n5c(C)nnc54)CC[C@]3(C)CC[C@]12C
- DC50 [1]: 9.6 nM
- DC50 [2]: 29 nM

SMILES: O=C1CCC(N2C(=O)c3cccc(NC(=O)CCCCCCCn4cc(COc5c(O)cc(O)c6c(=O)cc(-c7ccccc7)oc56)nn4)c3C2=O)C(=O)N1 (configuration not stated)
- IC50 [3]: 523 nM
- IC50 (MCF7): 17 nM

SMILES: CC(=O)N1N=CC2C[C@@]3(C)C(=CC[C@H]4[C@@H]5CC[C@H]([C@H](C)CCC(=O)N6CCOCC6)[C@@]5(C)CC[C@@H]43)C(C)(C)C21 (some centres not stated)
- DC50 [4]: 220 nM

SMILES: COc1c(O)cc(O)c2c(=O)cc(-c3ccccc3)oc12 [WOGONIN]
- IC50 (MCF7): 30 nM

SMILES: COc1cc(/C=C/C(=O)N2CCC=CC2=O)cc(OC)c1OCCN1CCN(C(=O)CN2CCC(C(=O)Nc3ncc(SCc4ncc(C(C)(C)C)o4)s3)CC2)CC1
- EC50 (LNCaP): 3.2 nM
- EC50 (DU-145): 8.5 nM
- EC50 (CWR22R): 6.4 nM
- DC50 [5]: 9 nM

SMILES: Cc1ncsc1-c1ccc([C@H](C)NC(=O)[C@@H]2CC(OC(=O)CCCCn3cc(CNC(=O)CC[C@H](NC(=O)c4ccc(NCc5cnc6[nH]c(N)nc(=O)c6n5)cc4)C(=O)O)nn3)CN2C(=O)[C@H](NC(=O)CCCCCCCCCCNCCCONC(=O)c2ccc(F)c(F)c2Nc2ccc(I)cc2F)C(C)(C)C)cc1 (some centres not stated)
- IC50 (HT-29): 436 nM

SMILES: Cc1ncsc1-c1ccc([C@H](C)NC(=O)[C@@H]2CC(OC(=O)CCCCn3cc(CNC(=O)CC[C@H](NC(=O)c4ccc(NCc5cnc6[nH]c(N)nc(=O)c6n5)cc4)C(=O)O)nn3)CN2C(=O)[C@@H](NC(=O)COCCCOCCNC(=O)C[C@@H]2N=C(c3ccc(Cl)cc3)c3c(sc(C)c3C)-n3c(C)nnc32)C(C)(C)C)cc1 (some centres not stated)
- IC50 (HFF-1): > 10000 nM
- IC50 (HeLa): 246 nM

SMILES: C[C@H]1[C@H](C)CCC2(C(=O)NCCOCCOCCOCCNc3cccc4c3C(=O)N(C3CCC(=O)NC3=O)C4=O)CC[C@]3(C)C(=CC[C@@H]4[C@@]5(C)CCC(O)C(C)(C)[C@@H]5CC[C@]43C)[C@H]12 (some centres not stated)
- IC50 (A549 [6]): 230 nM
- IC50 (Huh-7 [7]): 230 nM
- IC50 (Huh-7 [8]): 390 nM
- IC50 (HepG2 [9]): 230 nM
- IC50 (A549 [10]): 230 nM
- Emax [11]: 75%
- IC50 (HepG2 [12]): 380 nM

SMILES: Cc1ncsc1-c1ccc(CNC(=O)[C@@H]2C[C@@H](O)CN2C(=O)[C@H](NC(=O)CCCCCCCCCCNC(=O)OC2C[C@@H](C)C=C3C=C[C@H](C)[C@H](CC[C@@H]4C[C@@H](O)CC(=O)O4)[C@H]32)C(C)(C)C)cc1 (some centres not stated)
- Emax [13]: 56%
- IC50 [14]: 1300 nM

Reference: ChEMBL document CHEMBL5214967, “Natural Product-Inspired Targeted Protein Degraders: Advances and Perspectives” (J Med Chem, 2022)
